Source: patent publication US6380181B1, “Synthetic catechol derivatives, method for production and use thereof” (priority 1996, dated 2002)
Values after ≈ are worked out from the molar mass of the structure shown.

What was measured:
Format in all cases: cell-based
[1] = test system: Klebsiella pneumoniae ATCC 10031; assay: Agar diffusion test; conditions: concentration 100 μg/ml
[2] = test system: Pseudomonas aeruginosa ATCC 27853 (wild type); assay: Agar diffusion test; conditions: concentration 100 μg/ml; P. aeruginosa ATCC 27853
[3] = test system: Klebsiella pneumoniae SG 117; assay: Agar diffusion test; conditions: concentration 100 μg/ml
[4] = test system: Pseudomonas aeruginosa Oxa6 (plasmid-coded β-lactamase); conditions: concentration 100 μg/ml; P. aeruginosa OXA 6
[5] = test system: E. coli mutant BR185 tonB−
[6] = test system: Pseudomonas aeruginosa NCTC 10701; assay: Agar diffusion test; conditions: concentration 100 μg/ml; P. aeruginosa NCTC 10701
[7] = test system: Pseudomonas aeruginosa SG 137 (carbenicillin-resistant); assay: Agar diffusion test; conditions: concentration 100 μg/ml; P. aeruginosa SG 137
[8] = test system: Pseudomonas aeruginosa KW 799 WT; assay: Microdilution test (MIC); conditions: P. aeruginosa KW 799/WT
In short: (§1)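 Broth microdilution MIC determination; paired strains (Pseudomonas KW 799 WT vs /61, E. coli DC0 vs DC2) used to assess the effect of improved penetration capacity on compound efficacy.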

[9] = test system: Pseudomonas aeruginosa KW 799/61; assay: Microdilution test (MIC)
In short: as §1

E. coli DC0 = assay: Microdilution test (MIC); conditions: Escherichia coli, DC0, read-out: MIC values, microdilution test
In short: as §1

[10] = test system: Stenotrophomonas maltophilia GN 12873; assay: Microdilution test (MIC); conditions: GN12873
[11] = test system: E. coli mutant PLB3268 ompF++; conditions: E. coli mutant PLB3268 ompF++ (ompF super-expressed)
Source text: (§2) The efficacy against β-lactamase formers and against multi-resistant germs is therefore due to a new type of mechanism for overcoming the penetration resistance, by means of which the ratio of active ingredient to enzyme in the bacterial cell is influenced so that not all antibiotic molecules are inactivated before they reach their target.
PLB268: ompF- was super-expressed.

[12] = test system: Salmonella gallinarum ATCC 9184; assay: microbe, parasite or virus in culture; conditions: Salmonella gallinarum ATCC9184
Procedure: (§3) The minimum inhibiting concentrations (MICs) were determined for the following bacterial strains: Pseudomonas aeruginosa NCTC 10701, NCTC 10662, SG 137, ATCC 27853, KW 799 WT and KW 799/61, E. coli DCO, DC2 and ATCC 25922, Serratia marcescens SG 621; Salmonella gallinarum ATCC 9184, Klebsiella pneumoniae ATCC 10031 and SG 117.

[13] = test system: Pseudomonas aeruginosa ATCC 9027 (wild type); assay: Agar diffusion test; conditions: concentration 100 μg/ml; P. aeruginosa ATCC 9027
[14] = test system: Salmonella gallinarum ATCC 9184; conditions: concentration 100 μg/ml; Salmonella galinarum ATCC 9184
[15] = test system: Pseudomonas aeruginosa ATCC 27853; assay: Microdilution test (MIC); conditions: P. aeruginosa ATCC 27853
Procedure: as §3

[16] = test system: Pseudomonas aeruginosa SG 137; assay: Microdilution test (MIC); conditions: P. aeruginosa SG 137
Procedure: as §3

[17] = test system: Pseudomonas aeruginosa NCTC 10662; assay: Microdilution test (MIC); conditions: Pseudomonas aeruginosa, NCTC10662; P. aeruginosa NCTC 10662
Procedure: as §3

[18] = test system: Klebsiella pneumoniae ATCC 10031; assay: Microdilution test (MIC)
Procedure: as §3

E. coli ATCC 25922 = assay: Microdilution test (MIC)
Procedure: as §3

[19] = test system: Klebsiella pneumoniae SG 117; assay: Microdilution test (MIC)
Procedure: as §3

[20] = test system: Serratia marcescens SG 621; assay: Microdilution test (MIC)
Procedure: as §3

[21] = test system: Pseudomonas aeruginosa NCTC 10701; assay: Microdilution test (MIC); conditions: P. aeruginosa NCTC 10701
Procedure: as §3

[22] = test system: Pseudomonas aeruginosa NPS1 (plasmid-coded β-lactamase); conditions: concentration 100 μg/ml; P. aeruginosa NPS 1
E. coli DC2 = assay: microbe, parasite or virus in culture
In short: as §1

[23] = test system: Pseudomonas aeruginosa KW 799 WT (wild type); assay: Agar diffusion test; conditions: concentration 100 μg/ml; P. aeruginosa KW799/WT
[24] = test system: Pseudomonas aeruginosa NCTC 10662; assay: Agar diffusion test; conditions: concentration 100 μg/ml; P. aeruginosa NCTC 10662
[25] = test system: Stenotrophomonas maltophilia IMET 10402; assay: Agar diffusion test; conditions: concentration 100 μg/ml
[26] = test system: Stenotrophomonas maltophilia GN 12873; assay: Agar diffusion test; conditions: concentration 100 μg/ml
[27] = test system: E. coli DC2 (penetration mutant); conditions: concentration 100 μg/ml
[28] = test system: Pseudomonas aeruginosa KW 799/61 (penetration mutant); conditions: concentration 100 μg/ml; P. aeruginosa KW799/61
E. coli AB2847 tonB+ = test system: E. coli AB2847 tonB+
E. coli DC0 (wild type) = assay: Agar diffusion test; conditions: concentration 100 μg/ml
E. coli mutant KB5 ompC− = test system: E. coli mutant KB5 ompC−
Source text: as §2

E. coli mutant KB4 ompF− = test system: E. coli mutant KB4 ompF−
Source text: as §2

## CC1(C)S[C@@H]2[C@H](NC(=O)[C@H](NC(=O)N3CCNC3=O)c3ccccc3)C(=O)N2[C@H]1C(=O)O [Azlocillin, reference compound]
[1]
  inhibition spot diameter in the agar diffusion test: 15 mm
[2]
  inhibition spot diameter in the agar diffusion test: 19 mm
[3]
  inhibition spot diameter in the agar diffusion test: 18 mm
[4]
  inhibition spot diameter in the agar diffusion test: 0 mm
[5]
  inhibition spot diameter in agar diffusion test: 8 mm
[6]
  inhibition spot diameter in the agar diffusion test: 27 mm
[7]
  inhibition spot diameter in the agar diffusion test: 17 mm
[8]; Pseudomonas aeruginosa, KW799WT
  MIC: 3.12 µg/mL (≈ 6.76 µM)
[9]; Pseudomonas aeruginosa, KW799/61, P. aeruginosa KW 799/61
  MIC: 0.2 µg/mL (≈ 0.433 µM)
E. coli DC0
  MIC: 12.5 µg/mL (≈ 27.1 µM)
[10]
  MIC: 25 to 100 µg/mL (≈ 54.2 to 217 µM)
[11]
  inhibition spot diameter in agar diffusion test: 17.5 mm
[12]; Salmonella enterica, read-out: MIC values, microdilution test
  MIC: 3.12 µg/mL (≈ 6.76 µM)
[13]
  inhibition spot diameter in the agar diffusion test: 15 mm
[14]
  inhibition spot diameter in the agar diffusion test: 21 mm
[15]; Pseudomonas aeruginosa, ATCC27853
  MIC: 6.25 µg/mL (≈ 13.5 µM)
[16]; Pseudomonas aeruginosa, SG137
  MIC: 6.25 µg/mL (≈ 13.5 µM)
[17]
  MIC: 6.25 µg/mL (≈ 13.5 µM)
[18]; ATCC10031
  MIC: 6.25 µg/mL (≈ 13.5 µM)
E. coli ATCC 25922; Escherichia coli, ATCC25922
  MIC: 6.25 µg/mL (≈ 13.5 µM)
[19]; SG117
  MIC: 6.25 µg/mL (≈ 13.5 µM)
[20]; SG621
  MIC: 50 µg/mL (≈ 108 µM)
[21]; Pseudomonas aeruginosa, NCTC10701
  MIC: 0.2 µg/mL (≈ 0.433 µM)
[22]
  inhibition spot diameter in the agar diffusion test: 0 mm
E. coli DC2; Escherichia coli, read-out: MIC values, microdilution test
  MIC: 0.78 µg/mL (≈ 1.69 µM)
[23]
  inhibition spot diameter in the agar diffusion test: 27 mm
[24]
  inhibition spot diameter in the agar diffusion test: 17 mm
[25]
  inhibition spot diameter in the agar diffusion test: 21 mm
[26]
  inhibition spot diameter in the agar diffusion test: 0 mm
[27]
  inhibition spot diameter in the agar diffusion test: 33 mm
[28]
  inhibition spot diameter in the agar diffusion test: 40 mm
E. coli AB2847 tonB+
  inhibition spot diameter in agar diffusion test: 8 mm
E. coli DC0 (wild type)
  inhibition spot diameter in the agar diffusion test: 16 mm
E. coli mutant KB5 ompC−
  inhibition spot diameter in agar diffusion test: 4 mm
E. coli mutant KB4 ompF−
  inhibition spot diameter in agar diffusion test: 6.5 mm

## CC(=O)Oc1cccc(C(=O)N[C@@H](C)C(=O)N[C@@H](C(=O)N[C@@H]2C(=O)N3[C@@H]2SC(C)(C)[C@@H]3C(=O)O)c2ccccc2)c1OC(C)=O [Substance 27, N-[L-2-(2,3-Diacetoxybenzoylamino)-propionyl]-ampicillin]
[3]
  inhibition spot diameter in the agar diffusion test: 17 mm
[4]
  inhibition spot diameter in the agar diffusion test: 12 mm
[5]
  inhibition spot diameter in agar diffusion test: 1 mm
[6]
  inhibition spot diameter in the agar diffusion test: 0 mm
[7]
  inhibition spot diameter in the agar diffusion test: 22 mm
[8]
  MIC values, microdilution test: 0.78 µg/mL (≈ 1.22 µM)
[9]
  MIC values, microdilution test: 0.2 µg/mL (≈ 0.312 µM)
[11]
  inhibition spot diameter in agar diffusion test: 14 mm
[12]
  MIC values, microdilution test: 1.56 µg/mL (≈ 2.43 µM)
[13]
  inhibition spot diameter in the agar diffusion test: 19 mm
[14]
  inhibition spot diameter in the agar diffusion test: 24 mm
[15]
  MIC values, microdilution test: 6.25 µg/mL (≈ 9.76 µM)
[16]
  MIC values, microdilution test: 3.12 µg/mL (≈ 4.87 µM)
[18]
  MIC values, microdilution test: 0.4 µg/mL (≈ 0.624 µM)
E. coli ATCC 25922
  MIC values, microdilution test: 6.25 µg/mL (≈ 9.76 µM)
[19]
  MIC values, microdilution test: 50 µg/mL (≈ 78 µM)
[20]
  MIC values, microdilution test: 50 µg/mL (≈ 78 µM)
[21]
  MIC values, microdilution test: 0.4 µg/mL (≈ 0.624 µM)
[22]
  inhibition spot diameter in the agar diffusion test: 10 mm
E. coli DC2
  MIC values, microdilution test: 0.4 µg/mL (≈ 0.624 µM)
[23]
  inhibition spot diameter in the agar diffusion test: 30 mm
[24]
  inhibition spot diameter in the agar diffusion test: 16 mm
[25]
  inhibition spot diameter in the agar diffusion test: 29 mm
[26]
  inhibition spot diameter in the agar diffusion test: 22 mm
[27]
  inhibition spot diameter in the agar diffusion test: 30 mm
[28]
  inhibition spot diameter in the agar diffusion test: 37 mm
E. coli AB2847 tonB+
  inhibition spot diameter in agar diffusion test: 7 mm
E. coli DC0 (wild type)
  inhibition spot diameter in the agar diffusion test: 21 mm
E. coli mutant KB5 ompC−
  inhibition spot diameter in agar diffusion test: 7.5 mm
E. coli mutant KB4 ompF−
  inhibition spot diameter in agar diffusion test: 8.5 mm
